Common to all, as to assay type: in vivo
For assay [1], the system named is Plasmopara viticola, pathogen of grape downy mildew. Briefly: Grape downy mildew control test, foliage application (Test Example 3). The text has this:
(§1) Control value=100(A−B)/A “Equation 1”
A plastic pot was filled with sandy soil, and grape (Berry A) was then disseminated. The grape was allowed to grow in a green house for 40 days. A wettable powder of the compound (1b) and a wettable powder of ethaboxam were respectively diluted with water and then tank-mixed so as to prepare tank-mixed liquids containing compound (1b) and ethaboxam in predetermined concentration. The tank-mixed liquids were subjected to foliage application such that they could be sufficiently adhered to the underside of the leaves of the aforementioned grape plants. After the foliage application, the plants were air-dried. Thereafter, an aqueous suspension of sporangia of Plasmopara viticola, pathogen of grape downy mildew, was sprayed on the grape plants to inoculate the pathogen. They were placed at 23° C. under high humidity for one day after the inoculation, cultured in a greenhouse at 23° C. for 5 days. The grape plants were thereafter placed at 23° C. under high humidity for one day and infected area was checked.
As a comparison, the respective wettable powders described above were diluted with water in predetermined concentration so as to prepare compound (1b) liquids and a ethaboxam liquid respectively and they were subjected to similar disease control test. In order to calculate the control value, the incidence of disease was also determined in the case in which the plants had not been treated with the agent. The relative incidence of disease of each treated area was determined as the incidence of disease of the area assuming that the incidence of disease of untreated area was represented as 100, and the control value was calculated by Equation 1 based on the incidence of disease thus determined.

The test system of assay [2] is Pythium ultimum, pathogen of cucumber damping-off. Description: Cucumber damping-off control test, seed treatment (Test Example 2). How it is done: as §1
Generally, the control value expected for the case in which the given two kinds of active ingredient compounds are mixed and used for the treatment, the so-called control value expectation is calculated from the following Colby's calculating equation. E=X+Y−(X×Y)/100 “Equation 2”
E: Control value (%) expected for the case in which active ingredient compound A in M ppm or in M g per 100 kg of seeds and active ingredient compound B in N ppm or in N g per 100 kg of seeds are mixed and used for treatment (hereinbelow referred to as “control value expectation”) “Synergetic effect(%)”=(Actual control value)×100/(Control value expectation)
An acetone solution of the compound (1b) and an acetone solution of ethaboxam were mixed to prepare mixed liquids containing the compound (1b) and ethaboxam in predetermined concentration. These mixed liquids were adhered on the surface of cucumber (Sagamihanjiro) seeds and allowed to stand still overnight to obtain treated seeds. A plastic pot was filled with sandy soil and the treated seeds were disseminated on it. Then the seeds were covered with sandy soil which had been mixed with a bran medium on which Pythium ultimum, pathogen of cucumber damping-off, had been allowed to grow. They were irrigated and allowed to grow at 18° C. under humidity for 13 days, and thereafter control effect was checked. The incidence of disease was calculated by Equation 3 and the control value was calculated by Equation 1 based on the incidence of disease.
As a comparison, acetone solutions containing the compound (1b) in the predetermined concentration and an acetone solution containing ethaboxam in the predetermined concentration were prepared and subjected to similar tests. Incidence of disease=(Number of no emerging seedlings and number of seedlings in which development of disease was observed)×100/(Number of total disseminated seeds) “Equation 3”

The subject of assay [3] is Phytophthora infestans, pathogen of tomato late blight. Particulars: foliage application.

Like-named read-outs stand apart in the source and are kept apart here.

Take `CCNc1nc(CC)c(C(=O)NC(C#N)c2cccs2)s1` (stereo not shown) [Ethaboxam, ethaboxam, reference compound]: the Actual control value in assay [1] (ethaboxam 0.4 ppm alone) is 1%; in assay [1] (ethaboxam 2 ppm alone), 35%; in assay [2] (ethaboxam 10 g ai/100 kg-seed alone), 73%; in assay [3] (ethaboxam 0.4 ppm alone), 10%.
For the compound `CNC(=O)C(OC)c1ccccc1COc1cc(C)ccc1C` (racemic) [Compound (1b)], the Actual control value is given as 2% in assay [1] (compound (1b) 2 ppm alone); 6.7% in assay [2] (compound (1b) 5 g ai/100 kg-seed alone); 6.7% in assay [2] (compound (1b) 10 g ai/100 kg-seed alone); 13% in assay [2] (compound (1b) 20 g ai/100 kg-seed alone); 5% in assay [3] (compound (1b) 10 ppm alone); 25% in assay [3] (compound (1b) 50 ppm alone).

(Values after patent publication US8609585B2 (priority 2008, dated 2013).)
